Data published in patent US9115127B2 (AMGEN INC., priority 2010, dated 2015).
Structures can show the parent of a compound that is named as a salt.

biological target: T1, wild-type human ALK (cytoplasmic domain, amino acids 1058-1620, N-terminal GST fusion) (Homo sapiens, UniProt Q9UM73); assay: ALK Inhibition in Enzyme Assay (Lance TR-FRET kinase assay); type: biochemical
T1 construct: The cytoplasmic domain (amino acids 1058-1620) of wild-type human ALK; GST (N); made in house; host or cells: SF9 insect cells
Procedure: ALK Inhibition in Enzyme Assay
Kinase activity of the purified protein was assessed using a Lance® TR-FRET assay. […] The reaction was allowed to proceed for 90 minutes at room temperature and was then terminated with 20 mM EDTA in 50 mM Tris (pH 7.5), 100 mM NaCl, 0.05% BSA, and 0.1% Tween-20. Phosphorylation of the peptide substrate was detected using the Lance® detection reagents streptavidin-allophycocyanin (SA-APC) and Eu-W1024 anti-phosphotyrosine antibody (PT66) from Perkin Elmer Life Sciences (Waltham, Mass.). The plates were read on a RUBY star plate reader (BMG LABTECH, Cary, N.C.) with an excitation wavelength of 320 nm.

T1 sequence (Q9UM73 1058-1620): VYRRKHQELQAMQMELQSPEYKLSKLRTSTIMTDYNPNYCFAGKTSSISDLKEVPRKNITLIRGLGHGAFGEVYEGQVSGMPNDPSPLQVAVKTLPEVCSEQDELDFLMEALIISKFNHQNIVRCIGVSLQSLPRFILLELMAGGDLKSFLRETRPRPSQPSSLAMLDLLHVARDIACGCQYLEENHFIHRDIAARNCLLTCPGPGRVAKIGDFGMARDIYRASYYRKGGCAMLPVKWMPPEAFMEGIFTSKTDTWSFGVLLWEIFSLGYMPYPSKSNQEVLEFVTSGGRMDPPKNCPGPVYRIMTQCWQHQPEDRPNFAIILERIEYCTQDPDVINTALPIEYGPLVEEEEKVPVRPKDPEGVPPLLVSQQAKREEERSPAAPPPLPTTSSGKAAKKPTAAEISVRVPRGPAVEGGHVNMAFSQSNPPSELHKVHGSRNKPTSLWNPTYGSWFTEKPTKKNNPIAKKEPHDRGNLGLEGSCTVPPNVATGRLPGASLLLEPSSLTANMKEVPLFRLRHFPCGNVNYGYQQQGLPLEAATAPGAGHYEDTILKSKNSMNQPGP

Compound | IC50 [nM]
CC(C)NC[C@H]1CC[C@@H](n2/c(=N/C(=O)c3ccc(F)cc3)[nH]c3ccc(CN4CCCCC4)cc32)CC1 [Example 36, (E)-4-Fluoro-N-(1-(cis-4-((isopropylamino)methyl)cyclohexyl)-6-(piperidin-1-ylmethyl)-1H-benzo[d]imidazol-2(3H)-ylidene)benzamide] | 100 to 1000
O=C(/N=c1\[nH]c2ccc(CN3CCCCC3)cc2n1[C@H]1CC[C@@H](CO)CC1)c1ccc(F)cc1 [Example 37, (E)-4-Fluoro-N-(1-(cis-4-(hydroxymethyl)cyclohexyl)-6-(piperidin-1-ylmethyl)-1H-benzo[d]imidazol-2(3H)-ylidene)benzamide] | 100 to 1000
C=CCNS(=O)(=O)c1cc(C(=O)/N=c2\[nH]c3ccc(CN4CCCCC4)cc3n2[C@H]2CC[C@@H](C(N)=O)CC2)ccc1F [Example 38, (E)-3-(N-Allylsulfamoyl)-N-(1-(cis-4-carbamoylcyclohexyl)-6-(piperidin-1-ylmethyl)-1H-benzo[d]imidazol-2(3H)-ylidene)-4-fluorobenzamide] | < 50
O=C(/N=c1\[nH]c2ccc(CN3CCCCC3)cc2n1[C@H]1CC[C@@H](C(=O)NCC(F)(F)F)CC1)c1ccc(F)cc1 [Example 39, (E)-4-Fluoro-N-(6-(piperidin-1-ylmethyl)-1-(cis-4-(2,2,2-trifluoroethylcarbamoyl)cyclohexyl)-1H-benzo[d]imidazol-2(3H)-ylidene)benzamide] | < 50
CC(C)CCNC(=O)[C@H]1CC[C@@H](n2/c(=N/C(=O)c3ccc(F)cc3)[nH]c3ccc(CN4CCCCC4)cc32)CC1 [Example 40, (E)-4-Fluoro-N-(1-(cis-4-(isopentylcarbamoyl)cyclohexyl)-6-(piperidin-1-ylmethyl)-1H-benzo[d]imidazol-2(3H)-ylidene)benzamide] | 50 to 100
CC(C)NC(=O)[C@H]1CC[C@@H](n2/c(=N/C(=O)c3ccc(F)cc3)[nH]c3ccc(CN4CCOCC4)cc32)CC1 [Example 41, (E)-4-Fluoro-N-(1-(cis-4-(isopropylcarbamoyl)cyclohexyl)-6-(morpholinomethyl)-1H-benzo[d]imidazol-2(3H)-ylidene)benzamide] | < 50
O=C(/N=c1\[nH]c2ccc(CN3CCOCC3)cc2n1[C@H]1CC[C@@H](C(=O)O)CC1)c1ccc(F)cc1 [Example 42, cis-4-((E)-2-(4-Fluorobenzoylimino)-6-(morpholinomethyl)-2,3-dihydro-1H-benzo[d]imidazol-1-yl)cyclohexanecarboxylic acid] | 1000 to 5000
COC(=O)[C@H]1CC[C@@H](n2/c(=N/C(=O)c3ccc(F)cc3)[nH]c3cnc(OCCN4CCCCC4)cc32)CC1 [Example 44, cis-Methyl 4-((E)-2-(4-fluorobenzoylimino)-6-(2-(piperidin-1-yl)ethoxy)-2,3-dihydro-1H-imidazo[4,5-c]pyridin-1-yl)cyclohexanecarboxylate] | < 50
CC(C)NC(=O)[C@H]1CC[C@@H](n2/c(=N/C(=O)c3ccc(F)cc3)[nH]c3cnc(OCCN4CCCCC4)cc32)CC1 [Example 45, (E)-4-Fluoro-N-(1-(cis-4-(isopropylcarbamoyl)cyclohexyl)-6-(2-(piperidin-1-yl)ethoxy)-1H-imidazo[4,5-c]pyridin-2(3H)-ylidene)benzamide] | < 50
CC(C)N(C)C(=O)[C@H]1CC[C@@H](n2/c(=N/C(=O)c3ccc(F)cc3)[nH]c3ccc(CN4CCCCC4)cc32)CC1 [Example 46, (E)-4-Fluoro-N-(1-(cis-4-(isopropyl(methyl)carbamoyl)cyclohexyl)-6-(piperidin-1-ylmethyl)-1H-benzo[d]imidazol-2(3H)-ylidene)benzamide] | < 50
O=C(/N=c1\[nH]c2ccc(CN3CCCCC3)cc2n1[C@H]1CC[C@@H](C(=O)N2CCNCC2)CC1)c1ccc(F)cc1 [Example 47, (E)-4-Fluoro-N-(1-(cis-4-(piperazine-1-carbonyl)cyclohexyl)-6-(piperidin-1-ylmethyl)-1H-benzo[d]imidazol-2(3H)-ylidene)benzamide] | < 50
CC(C)NC(=O)[C@H]1CC[C@@H](n2/c(=N/C(=O)c3ccc(F)cc3)[nH]c3ccc(CN4CCC(CC(=O)O)CC4)cc32)CC1 [Example 48, 2-(1-(((E)-2-(4-Fluorobenzoylimino)-3-(cis-4-(isopropylcarbamoyl)cyclohexyl)-2,3-dihydro-1H-benzo[d]imidazol-5-yl)methyl)piperidin-4-yl)acetic acid] | < 50
O=C(/N=c1\[nH]c2ccc(CN3CCCCC3)cc2n1[C@H]1CC[C@@H](C(=O)Nc2nccs2)CC1)c1ccc(F)cc1 [Example 49, (E)-4-Fluoro-N-(6-(piperidin-1-ylmethyl)-1-(cis-4-(thiazol-2-ylcarbamoyl)cyclohexyl)-1H-benzo[d]imidazol-2(3H)-ylidene)benzamide] | 50 to 100
CC(C)NC(=O)[C@H]1CC[C@@H](n2/c(=N/C(=O)c3ccc(F)cc3)[nH]c3cnc(OCCN4CCOCC4)cc32)CC1 [Example 51, (E)-4-Fluoro-N-(1-(cis-4-(isopropylcarbamoyl)cyclohexyl)-6-(2-morpholinoethoxy)-1H-imidazo[4,5-c]pyridin-2(3H)-ylidene)benzamide] | < 50
CC(C)NC(=O)[C@H]1CC[C@@H](n2/c(=N/C(=O)c3ccc(F)cc3)[nH]c3ccc(CN4CCC[C@@H]4C(=O)O)cc32)CC1 [Example 53, (R)-1-(((E)-2-(4-Fluorobenzoylimino)-3-(cis-4-(isopropylcarbamoyl)cyclohexyl)-2,3-dihydro-1H-benzo[d]imidazol-5-yl)methyl)pyrrolidine-2-carboxylic acid hydrochloride] | < 50
CC(C)NC(=O)[C@H]1CC[C@@H](n2/c(=N/C(=O)c3ccc(F)cc3)[nH]c3ccc(CN4CCC[C@H]4C(=O)O)cc32)CC1 [Example 54, (S)-1-(((E)-2-(4-Fluorobenzoylimino)-3-(cis-4-(isopropylcarbamoyl)cyclohexyl)-2,3-dihydro-1H-benzo[d]imidazol-5-yl)methyl)pyrrolidine-2-carboxylic acid hydrochloride] | < 50
C[C@@H]1CN(C(=O)OC(C)(C)C)CCN1C(=O)[C@H]1CC[C@@H](n2/c(=N/C(=O)c3ccc(F)cc3)[nH]c3cnc(OCCN4CCCCC4)cc32)CC1 [Example 56, (R)-tert-Butyl 4-(cis-4-((E)-2-(4-fluorobenzoylimino)-6-(2-(piperidin-1-yl)ethoxy)-2,3-dihydro-1H-imidazo[4,5-c]pyridin-1-yl)cyclohexanecarbonyl)-3-methylpiperazine-1-carboxylate] | 100 to 1000
C[C@@H]1CN(C(=O)OC(C)(C)C)CCN1C(=O)[C@H]1CC[C@@H](n2/c(=N/C(=O)c3ccc(C#N)cc3)[nH]c3cnc(OCCN4CCCCC4)cc32)CC1 [Example 57, (R)-tert-Butyl 4-(cis-4-((E)-2-(4-cyanobenzoylimino)-6-(2-(piperidin-1-yl)ethoxy)-2,3-dihydro-1H-imidazo[4,5-c]pyridin-1-yl)cyclohexanecarbonyl)-3-methylpiperazine-1-carboxylate] | < 50
C[C@@H]1CNCCN1C(=O)[C@H]1CC[C@@H](n2/c(=N/C(=O)c3ccc(C#N)cc3)[nH]c3cnc(OCCN4CCCCC4)cc32)CC1 [Example 58, (E)-4-Cyano-N-(1-(cis-4-((R)-2-methylpiperazine-1-carbonyl)cyclohexyl)-6-(2-(piperidin-1-yl)ethoxy)-1H-imidazo[4,5-c]pyridin-2(3H)-ylidene)benzamide] | < 50
C[C@@H]1CNCCN1C(=O)[C@H]1CC[C@@H](n2/c(=N/C(=O)c3ccc(F)cc3)[nH]c3cnc(OCCN4CCCCC4)cc32)CC1 [Example 59, (E)-4-Fluoro-N-(1-(cis-4-((R)-2-methylpiperazine-1-carbonyl)cyclohexyl)-6-(2-(piperidin-1-yl)ethoxy)-1H-imidazo[4,5-c]pyridin-2(3H)-ylidene)benzamide] | < 50
C[C@H]1CN(C(=O)[C@H]2CC[C@@H](n3/c(=N/C(=O)c4ccc(F)cc4)[nH]c4cnc(OCCN5CCCCC5)cc43)CC2)CCN1C(=O)OC(C)(C)C [Example 60, (S)-tert-Butyl 4-(cis-4-((E)-2-(4-fluorobenzoylimino)-6-(2-(piperidin-1-yl)ethoxy)-2,3-dihydro-1H-imidazo[4,5-c]pyridin-1-yl)cyclohexanecarbonyl)-2-methylpiperazine-1-carboxylate] | 1000 to 5000
C[C@H]1CN(C(=O)[C@H]2CC[C@@H](n3/c(=N/C(=O)c4ccc(F)cc4)[nH]c4cnc(OCCN5CCCCC5)cc43)CC2)CCN1 [Example 61, (E)-4-Fluoro-N-(1-(cis-4-((S)-3-methylpiperazine-1-carbonyl)cyclohexyl)-6-(2-(piperidin-1-yl)ethoxy)-1H-imidazo[4,5-c]pyridin-2(3H)-ylidene)benzamide] | < 50
C[C@H]1CN(C(=O)[C@H]2CC[C@@H](n3/c(=N/C(=O)c4ccccc4)[nH]c4cnc(OCCN5CCCCC5)cc43)CC2)CCN1 [Example 62] | 50 to 100
CC(C)NC(=O)[C@]1(O)CC[C@H](n2/c(=N/C(=O)c3ccc(F)cc3)[nH]c3cnc(OCCN4CCCCC4)cc32)CC1 [Example 63, (E)-4-Fluoro-N-(1-(trans-4-hydroxy-4-(isopropylcarbamoyl)cyclohexyl)-6-(2-(piperidin-1-yl)ethoxy)-1H-imidazo[4,5-c]pyridin-2(3H)-ylidene)benzamide] | 50 to 100
CC(C)(C)OC(=O)N1CCC(n2/c(=N/C(=O)c3ccccc3)[nH]c3cnc(OCCN4CCCCC4)cc32)CC1 [Example 64, (E)-tert-Butyl 4-(2-(benzoylimino)-6-(2-(piperidin-1-yl)ethoxy)-2,3-dihydro-1H-imidazo[4,5-c]pyridin-1-yl)piperidine-1-carboxylate] | 100 to 1000
